# ChEMBL document CHEMBL5442175, “EUbOPEN Chemogenomics Library - PDSP Secondary Binding” (2024)
# Key:
# [1] = molecular target: Beta-2 adrenergic receptor (Homo sapiens, UniProt P07550); test: (§1) PDSP Secondary Binding target: ADRB2 - Compounds are tested at 10 uM concentration, plate are incubated at room temperature in the dark for 90 minutes. Reaction are stopped by vacuum filtration onto 0.3% polyethyleneimine soaked filter mats using Filtermate harvester. Scintillation cocktail is then melted onto microwave-dried filters on a hot plate and the radio activity is counted in Microbia counter.
# Chain of Beta-2 adrenergic receptor (P07550 whole entry): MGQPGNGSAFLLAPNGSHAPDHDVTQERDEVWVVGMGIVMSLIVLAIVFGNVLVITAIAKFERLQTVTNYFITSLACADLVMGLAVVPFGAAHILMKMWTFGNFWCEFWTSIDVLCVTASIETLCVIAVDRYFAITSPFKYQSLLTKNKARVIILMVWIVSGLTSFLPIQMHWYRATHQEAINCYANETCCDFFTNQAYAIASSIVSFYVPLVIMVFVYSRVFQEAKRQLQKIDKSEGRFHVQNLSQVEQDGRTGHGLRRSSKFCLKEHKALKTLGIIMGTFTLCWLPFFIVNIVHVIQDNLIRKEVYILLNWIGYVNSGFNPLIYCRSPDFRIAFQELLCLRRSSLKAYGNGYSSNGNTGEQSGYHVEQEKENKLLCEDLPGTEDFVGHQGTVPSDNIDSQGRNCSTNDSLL
# Translocator protein = Translocator protein (Homo sapiens, UniProt P30536); test: as §1, with “TSPO” for “ADRB2”
# [2] = molecular target: Sigma intracellular receptor 2 (Homo sapiens, UniProt Q5BJF2); test: as §1, with “TMEM97” for “ADRB2”
# Chain of Sigma intracellular receptor 2 (Q5BJF2 whole entry): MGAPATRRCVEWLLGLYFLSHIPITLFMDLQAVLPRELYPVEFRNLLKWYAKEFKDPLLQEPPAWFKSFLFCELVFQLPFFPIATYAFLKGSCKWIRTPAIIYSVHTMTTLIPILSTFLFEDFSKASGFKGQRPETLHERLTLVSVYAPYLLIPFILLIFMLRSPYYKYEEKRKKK
# [3] = molecular target: Beta-3 adrenergic receptor (Homo sapiens, UniProt P13945); test: as §1, with “ADRB3” for “ADRB2”
# [4] = molecular target: 5-hydroxytryptamine receptor 5A (Homo sapiens, UniProt P47898); test: as §1, with “HTR5A” for “ADRB2”
# Chain of 5-hydroxytryptamine receptor 5A (P47898 whole entry): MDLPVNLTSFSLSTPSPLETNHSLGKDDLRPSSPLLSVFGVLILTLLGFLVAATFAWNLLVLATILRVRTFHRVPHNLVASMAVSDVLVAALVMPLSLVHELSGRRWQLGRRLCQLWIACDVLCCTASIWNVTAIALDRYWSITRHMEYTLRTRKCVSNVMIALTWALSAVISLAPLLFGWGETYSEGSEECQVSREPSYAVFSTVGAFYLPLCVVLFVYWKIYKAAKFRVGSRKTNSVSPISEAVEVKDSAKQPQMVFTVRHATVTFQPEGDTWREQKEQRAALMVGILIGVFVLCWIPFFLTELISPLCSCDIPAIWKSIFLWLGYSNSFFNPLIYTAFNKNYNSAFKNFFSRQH
# [5] = molecular target: 5-hydroxytryptamine receptor 1E (Homo sapiens, UniProt P28566); test: as §1, with “HTR1E” for “ADRB2”
# [6] = molecular target: Sodium-dependent noradrenaline transporter (Homo sapiens, UniProt P23975); test: as §1, with “SLC6A2” for “ADRB2”
# Chain of Sodium-dependent noradrenaline transporter (P23975 whole entry): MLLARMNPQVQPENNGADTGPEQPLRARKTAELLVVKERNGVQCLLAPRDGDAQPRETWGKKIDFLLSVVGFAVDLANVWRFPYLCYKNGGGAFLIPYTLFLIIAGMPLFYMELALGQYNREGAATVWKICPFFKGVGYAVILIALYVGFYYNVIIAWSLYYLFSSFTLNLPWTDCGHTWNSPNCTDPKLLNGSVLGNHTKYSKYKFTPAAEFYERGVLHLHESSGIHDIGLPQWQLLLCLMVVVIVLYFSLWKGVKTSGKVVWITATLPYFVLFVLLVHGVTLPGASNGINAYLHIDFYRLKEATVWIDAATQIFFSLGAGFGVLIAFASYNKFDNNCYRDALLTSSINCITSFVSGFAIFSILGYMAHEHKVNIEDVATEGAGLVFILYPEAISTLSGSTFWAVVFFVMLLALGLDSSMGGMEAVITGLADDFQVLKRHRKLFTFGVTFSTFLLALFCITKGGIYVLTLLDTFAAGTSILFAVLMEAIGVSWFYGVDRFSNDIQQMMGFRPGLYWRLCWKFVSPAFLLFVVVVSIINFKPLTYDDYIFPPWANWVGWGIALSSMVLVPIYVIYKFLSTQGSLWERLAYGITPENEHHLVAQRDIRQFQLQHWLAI
# [7] = molecular target: 5-hydroxytryptamine receptor 6 (Homo sapiens, UniProt P50406); test: as §1, with “HTR6” for “ADRB2”
# Chain of 5-hydroxytryptamine receptor 6 (P50406 whole entry): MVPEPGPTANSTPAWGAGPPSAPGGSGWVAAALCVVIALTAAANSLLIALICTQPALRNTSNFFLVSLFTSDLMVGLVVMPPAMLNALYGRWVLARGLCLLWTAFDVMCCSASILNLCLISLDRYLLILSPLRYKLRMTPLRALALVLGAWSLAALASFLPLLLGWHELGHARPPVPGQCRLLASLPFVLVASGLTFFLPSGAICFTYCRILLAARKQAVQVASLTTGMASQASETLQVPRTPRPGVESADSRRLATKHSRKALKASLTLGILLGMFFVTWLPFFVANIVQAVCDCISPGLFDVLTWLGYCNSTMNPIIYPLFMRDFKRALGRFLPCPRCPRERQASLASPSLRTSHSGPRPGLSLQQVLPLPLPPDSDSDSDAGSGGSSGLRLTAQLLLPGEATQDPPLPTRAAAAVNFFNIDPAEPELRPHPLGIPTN
# [8] = molecular target: T1, Alpha-2A adrenergic receptor (Homo sapiens, UniProt P08913); test: as §1, with “ADRA2A” for “ADRB2”
# T1 sequence (P08913 whole entry): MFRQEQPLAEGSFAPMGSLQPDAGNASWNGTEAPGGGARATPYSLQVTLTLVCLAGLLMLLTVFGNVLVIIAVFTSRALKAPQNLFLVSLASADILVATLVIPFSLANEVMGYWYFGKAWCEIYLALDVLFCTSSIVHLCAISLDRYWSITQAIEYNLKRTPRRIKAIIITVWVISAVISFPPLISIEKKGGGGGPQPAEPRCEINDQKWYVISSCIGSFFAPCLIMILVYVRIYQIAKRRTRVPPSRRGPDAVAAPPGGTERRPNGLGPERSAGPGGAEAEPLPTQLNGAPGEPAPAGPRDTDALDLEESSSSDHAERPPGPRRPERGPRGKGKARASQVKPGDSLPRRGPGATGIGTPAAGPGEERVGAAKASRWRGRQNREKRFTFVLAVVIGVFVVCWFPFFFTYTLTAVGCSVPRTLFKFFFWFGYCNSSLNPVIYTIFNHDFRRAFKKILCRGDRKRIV
# D(2) dopamine receptor = D(2) dopamine receptor (Homo sapiens, UniProt P14416); test: as §1, with “DRD2” for “ADRB2”
# [9] = molecular target: 5-hydroxytryptamine receptor 1B (Homo sapiens, UniProt P28222); test: as §1, with “HTR1B” for “ADRB2”
# [10] = molecular target: 5-hydroxytryptamine receptor 7 (Homo sapiens, UniProt P34969); test: as §1, with “HTR7” for “ADRB2”
# Chain of 5-hydroxytryptamine receptor 7 (P34969 whole entry): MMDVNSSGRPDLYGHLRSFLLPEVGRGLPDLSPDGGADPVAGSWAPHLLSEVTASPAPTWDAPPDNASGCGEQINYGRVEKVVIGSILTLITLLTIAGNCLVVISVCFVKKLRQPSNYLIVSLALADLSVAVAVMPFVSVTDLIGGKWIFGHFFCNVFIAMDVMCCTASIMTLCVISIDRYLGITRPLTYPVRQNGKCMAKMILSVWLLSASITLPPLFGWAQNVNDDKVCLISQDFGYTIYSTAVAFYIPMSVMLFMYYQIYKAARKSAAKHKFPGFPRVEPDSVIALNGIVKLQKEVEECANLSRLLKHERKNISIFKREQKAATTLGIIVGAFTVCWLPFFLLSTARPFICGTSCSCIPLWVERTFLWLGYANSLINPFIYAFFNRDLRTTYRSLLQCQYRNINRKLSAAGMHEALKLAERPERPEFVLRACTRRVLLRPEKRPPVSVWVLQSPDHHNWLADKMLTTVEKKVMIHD
# D(4) dopamine receptor = molecular target: T2, D(4) dopamine receptor (Homo sapiens, UniProt P21917); test: as §1, with “DRD4” for “ADRB2”
# T2 sequence (P21917 whole entry): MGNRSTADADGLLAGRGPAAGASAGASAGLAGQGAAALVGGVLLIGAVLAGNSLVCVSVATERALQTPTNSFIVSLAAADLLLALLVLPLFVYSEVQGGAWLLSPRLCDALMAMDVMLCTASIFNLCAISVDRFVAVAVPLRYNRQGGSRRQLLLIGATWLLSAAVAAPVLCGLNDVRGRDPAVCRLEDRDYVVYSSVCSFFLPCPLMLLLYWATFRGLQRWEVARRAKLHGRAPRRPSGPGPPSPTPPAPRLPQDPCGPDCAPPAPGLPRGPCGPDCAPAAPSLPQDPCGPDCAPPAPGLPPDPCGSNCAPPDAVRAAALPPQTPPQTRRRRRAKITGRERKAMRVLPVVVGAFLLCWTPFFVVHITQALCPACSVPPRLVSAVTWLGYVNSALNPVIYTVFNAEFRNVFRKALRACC
# [11] = molecular target: 5-hydroxytryptamine receptor 2A (Homo sapiens, UniProt P28223); test: as §1, with “HTR2A” for “ADRB2”
# Chain of 5-hydroxytryptamine receptor 2A (P28223 whole entry): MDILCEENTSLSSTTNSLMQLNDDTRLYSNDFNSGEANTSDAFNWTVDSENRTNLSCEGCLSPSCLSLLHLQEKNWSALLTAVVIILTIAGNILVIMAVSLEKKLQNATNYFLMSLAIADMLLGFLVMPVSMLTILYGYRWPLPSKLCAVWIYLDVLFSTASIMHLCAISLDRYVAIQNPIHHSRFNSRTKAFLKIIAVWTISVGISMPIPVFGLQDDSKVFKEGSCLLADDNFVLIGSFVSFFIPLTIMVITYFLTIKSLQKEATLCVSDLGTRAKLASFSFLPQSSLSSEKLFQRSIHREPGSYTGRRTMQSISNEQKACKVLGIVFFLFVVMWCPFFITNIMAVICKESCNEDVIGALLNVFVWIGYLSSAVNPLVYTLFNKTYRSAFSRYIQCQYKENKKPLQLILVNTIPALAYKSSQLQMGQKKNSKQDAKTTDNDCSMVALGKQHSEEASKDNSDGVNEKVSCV
# [12] = molecular target: T3, 5-hydroxytryptamine receptor 2C (Homo sapiens, UniProt P28335); test: as §1, with “HTR2C” for “ADRB2”
# T3 sequence (P28335 whole entry): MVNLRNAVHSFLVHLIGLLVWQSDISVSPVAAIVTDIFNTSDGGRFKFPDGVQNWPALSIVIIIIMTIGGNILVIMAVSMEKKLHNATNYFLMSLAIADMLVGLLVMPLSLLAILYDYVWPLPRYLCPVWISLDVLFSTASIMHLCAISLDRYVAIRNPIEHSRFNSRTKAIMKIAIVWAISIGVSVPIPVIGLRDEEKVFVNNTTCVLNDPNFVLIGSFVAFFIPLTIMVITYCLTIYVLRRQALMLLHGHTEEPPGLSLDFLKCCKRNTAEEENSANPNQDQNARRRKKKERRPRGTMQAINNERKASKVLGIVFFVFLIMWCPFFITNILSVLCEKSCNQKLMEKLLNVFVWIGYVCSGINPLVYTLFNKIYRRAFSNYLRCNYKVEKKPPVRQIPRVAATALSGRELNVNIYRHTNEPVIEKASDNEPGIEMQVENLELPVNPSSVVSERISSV
# [13] = molecular target: 5-hydroxytryptamine receptor 1D (Homo sapiens, UniProt P28221); test: as §1, with “HTR1D” for “ADRB2”
# Chain of 5-hydroxytryptamine receptor 1D (P28221 whole entry): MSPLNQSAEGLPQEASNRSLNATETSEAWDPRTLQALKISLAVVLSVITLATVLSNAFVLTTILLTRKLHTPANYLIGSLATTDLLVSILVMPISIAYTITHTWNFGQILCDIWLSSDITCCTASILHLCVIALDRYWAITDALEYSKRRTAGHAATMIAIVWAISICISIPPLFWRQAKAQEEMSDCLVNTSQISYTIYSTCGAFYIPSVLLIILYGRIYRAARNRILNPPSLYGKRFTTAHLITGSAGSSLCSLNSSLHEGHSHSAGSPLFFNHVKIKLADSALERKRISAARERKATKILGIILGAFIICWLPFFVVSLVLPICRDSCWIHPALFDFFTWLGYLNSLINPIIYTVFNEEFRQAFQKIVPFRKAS
# [14] = molecular target: Sigma non-opioid intracellular receptor 1 (Homo sapiens, UniProt Q99720); test: as §1, with “SIGMAR1” for “ADRB2”
# [15] = molecular target: 5-hydroxytryptamine receptor 2B (Homo sapiens, UniProt P41595); test: as §1, with “HTR2B” for “ADRB2”
# Chain of 5-hydroxytryptamine receptor 2B (P41595 whole entry): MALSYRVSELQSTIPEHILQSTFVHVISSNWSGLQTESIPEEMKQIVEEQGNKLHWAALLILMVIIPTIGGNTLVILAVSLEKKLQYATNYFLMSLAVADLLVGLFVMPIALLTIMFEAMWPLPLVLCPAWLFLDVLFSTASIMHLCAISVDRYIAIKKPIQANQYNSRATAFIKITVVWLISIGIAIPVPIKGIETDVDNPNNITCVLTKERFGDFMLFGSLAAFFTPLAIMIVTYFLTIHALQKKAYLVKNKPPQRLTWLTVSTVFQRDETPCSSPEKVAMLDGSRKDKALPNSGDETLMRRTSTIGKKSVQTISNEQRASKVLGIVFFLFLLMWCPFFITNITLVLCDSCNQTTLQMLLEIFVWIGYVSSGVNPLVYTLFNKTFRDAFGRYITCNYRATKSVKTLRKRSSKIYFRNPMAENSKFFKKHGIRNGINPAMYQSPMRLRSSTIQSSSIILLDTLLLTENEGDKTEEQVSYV
# [16] = molecular target: Sodium-dependent serotonin transporter (Homo sapiens, UniProt P31645); test: as §1, with “SLC6A4” for “ADRB2”
# Chain of Sodium-dependent serotonin transporter (P31645 whole entry): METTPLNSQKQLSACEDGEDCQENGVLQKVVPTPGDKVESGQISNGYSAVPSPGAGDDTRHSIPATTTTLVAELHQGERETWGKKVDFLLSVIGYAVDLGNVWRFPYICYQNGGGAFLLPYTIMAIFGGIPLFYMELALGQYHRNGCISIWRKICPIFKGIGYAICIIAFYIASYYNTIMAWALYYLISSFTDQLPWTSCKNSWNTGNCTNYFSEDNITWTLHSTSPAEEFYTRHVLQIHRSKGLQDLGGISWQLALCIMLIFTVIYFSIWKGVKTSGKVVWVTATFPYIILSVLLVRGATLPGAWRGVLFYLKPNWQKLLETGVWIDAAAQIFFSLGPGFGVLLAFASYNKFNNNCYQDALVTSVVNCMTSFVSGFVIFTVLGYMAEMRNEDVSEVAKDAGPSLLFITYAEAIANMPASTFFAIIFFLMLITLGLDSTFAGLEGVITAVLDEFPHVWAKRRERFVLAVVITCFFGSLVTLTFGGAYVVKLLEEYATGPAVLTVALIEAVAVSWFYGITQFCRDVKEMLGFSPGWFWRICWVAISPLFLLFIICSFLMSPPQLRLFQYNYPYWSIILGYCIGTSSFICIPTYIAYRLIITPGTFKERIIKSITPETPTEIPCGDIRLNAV
# [17] = molecular target: T4, Alpha-1B adrenergic receptor (Homo sapiens, UniProt P35368); test: as §1, with “ADRA1B” for “ADRB2”
# T4 sequence (P35368 whole entry): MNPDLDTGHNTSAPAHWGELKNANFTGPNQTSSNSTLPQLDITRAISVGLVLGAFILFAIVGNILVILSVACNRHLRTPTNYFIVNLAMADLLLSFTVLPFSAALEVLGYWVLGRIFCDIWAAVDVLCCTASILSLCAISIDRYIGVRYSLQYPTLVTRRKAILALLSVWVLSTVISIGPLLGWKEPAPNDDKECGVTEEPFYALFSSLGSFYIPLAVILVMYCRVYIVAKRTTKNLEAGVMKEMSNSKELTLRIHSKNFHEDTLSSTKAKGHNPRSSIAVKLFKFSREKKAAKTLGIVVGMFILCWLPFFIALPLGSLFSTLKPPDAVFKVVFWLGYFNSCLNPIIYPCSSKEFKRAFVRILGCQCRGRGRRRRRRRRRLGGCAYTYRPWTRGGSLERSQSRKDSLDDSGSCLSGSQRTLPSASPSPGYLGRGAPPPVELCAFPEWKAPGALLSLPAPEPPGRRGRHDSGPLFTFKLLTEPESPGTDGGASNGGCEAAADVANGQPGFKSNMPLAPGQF
# [18] = molecular target: Sodium-dependent dopamine transporter (Homo sapiens, UniProt Q01959); test: as §1, with “SLC6A3” for “ADRB2”
# D(3) dopamine receptor = D(3) dopamine receptor (Homo sapiens, UniProt P35462); test: as §1, with “DRD3” for “ADRB2”
# Chain of D(3) dopamine receptor (P35462 whole entry): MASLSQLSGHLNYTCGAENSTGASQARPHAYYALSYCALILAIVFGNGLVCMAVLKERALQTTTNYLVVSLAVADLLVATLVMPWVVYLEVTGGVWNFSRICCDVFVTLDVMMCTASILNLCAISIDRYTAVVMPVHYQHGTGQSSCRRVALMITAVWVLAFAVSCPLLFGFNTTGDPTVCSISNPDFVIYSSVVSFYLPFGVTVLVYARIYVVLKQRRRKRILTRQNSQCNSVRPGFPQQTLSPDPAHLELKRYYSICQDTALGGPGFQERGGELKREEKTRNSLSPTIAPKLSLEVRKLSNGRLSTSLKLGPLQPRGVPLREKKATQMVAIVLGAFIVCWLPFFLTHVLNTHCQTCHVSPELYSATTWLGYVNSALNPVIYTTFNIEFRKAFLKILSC
# [19] = molecular target: T5, Alpha-1A adrenergic receptor (Homo sapiens, UniProt P35348); test: as §1, with “ADRA1A” for “ADRB2”
# T5 sequence (P35348 whole entry): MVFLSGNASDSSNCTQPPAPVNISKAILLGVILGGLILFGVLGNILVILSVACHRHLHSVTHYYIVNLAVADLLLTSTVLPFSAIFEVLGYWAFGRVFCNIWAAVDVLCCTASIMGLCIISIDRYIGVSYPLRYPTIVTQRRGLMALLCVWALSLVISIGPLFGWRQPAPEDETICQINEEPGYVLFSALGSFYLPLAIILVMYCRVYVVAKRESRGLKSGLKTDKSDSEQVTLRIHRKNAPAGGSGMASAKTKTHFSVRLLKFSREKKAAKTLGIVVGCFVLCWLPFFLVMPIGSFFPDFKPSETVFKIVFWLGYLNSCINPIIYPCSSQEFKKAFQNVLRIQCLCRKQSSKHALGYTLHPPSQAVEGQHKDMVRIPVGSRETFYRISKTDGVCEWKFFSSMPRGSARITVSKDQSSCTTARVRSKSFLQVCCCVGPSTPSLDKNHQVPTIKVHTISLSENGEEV
# [20] = molecular target: T6, Alpha-1D adrenergic receptor (Homo sapiens, UniProt P25100); test: as §1, with “ADRA1D” for “ADRB2”
# T6 sequence (P25100 whole entry): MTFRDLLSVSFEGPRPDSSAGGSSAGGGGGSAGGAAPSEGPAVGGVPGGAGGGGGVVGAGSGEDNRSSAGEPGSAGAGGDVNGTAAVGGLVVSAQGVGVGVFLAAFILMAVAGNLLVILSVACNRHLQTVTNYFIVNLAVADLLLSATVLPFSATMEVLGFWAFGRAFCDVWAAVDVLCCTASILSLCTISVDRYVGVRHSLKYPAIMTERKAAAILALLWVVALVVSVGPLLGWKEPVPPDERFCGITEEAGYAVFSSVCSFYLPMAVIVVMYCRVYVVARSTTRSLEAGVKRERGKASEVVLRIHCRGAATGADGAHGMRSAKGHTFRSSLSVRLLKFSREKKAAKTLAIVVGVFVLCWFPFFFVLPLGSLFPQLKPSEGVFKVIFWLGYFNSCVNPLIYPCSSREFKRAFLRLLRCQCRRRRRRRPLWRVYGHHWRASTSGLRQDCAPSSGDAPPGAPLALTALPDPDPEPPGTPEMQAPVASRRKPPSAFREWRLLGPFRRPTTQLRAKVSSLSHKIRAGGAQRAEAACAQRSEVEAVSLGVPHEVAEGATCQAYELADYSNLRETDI
SMILES,Ki [1],Ki [2],Ki [4],Ki [6],Ki [7],Ki [11],Ki [12],Ki [13],Ki [15],Ki [16],Ki (D(3) dopamine receptor),other results
CN(C)S(=O)(=O)c1ccc(NC(=S)N2CCC(C(O)(c3ccccc3)c3ccccc3)CC2)cc1,5210 nM,242 nM,,,,,,,,,,Ki (Translocator protein): 969 nM; Ki [3]: 3500 nM
NCCc1c[nH]c2ccc(C(N)=O)cc12,,4570 nM,8.64 nM,2650 nM,325 nM,,,,,,,Ki [5]: 949 nM; Ki [8]: 2160 nM; Ki (D(2) dopamine receptor): > 10000 nM; Ki [9]: 11.2 nM
N#Cc1c[nH]c2c(C(=O)N3CCN(CCc4ccc(F)cc4)CC3)cccc12 [PRUVANSERIN],> 10000 nM,1180 nM,,2520 nM,,2.64 nM,1470 nM,588 nM,1040 nM,1100 nM,,Ki [10]: 2390 nM; Ki (D(4) dopamine receptor): 181 nM; Ki [14]: 178 nM
CCc1cc2c(cc1CC)CC(NC[C@H](O)c1ccc(O)c3[nH]c(=O)ccc13)C2 [INDACATEROL],106 nM,107 nM,,569 nM,> 10000 nM,2020 nM,1800 nM,,,770 nM,1340 nM,Ki [17]: 4320 nM; Ki [18]: 75 nM; Ki [19]: 356 nM; Ki [20]: 731 nM
CS(=O)(=O)NC[C@H]1CC[C@H](Nc2nc3c(s2)CCSc2ccccc2-3)CC1,7540 nM,1720 nM,1040 nM,,,,,1610 nM,400 nM,,498 nM,
